Data reported in patent publication US10828436B2, “Administering the noble gas argon during cardiopulmonary resuscitation” (Vanderbilt University, priority 2016, dated 2020).

Legend:
[1] = tested on: pig model of cardiac arrest; experiment: Pig model of cardiac arrest and CPR with Argon/O2 given during CPR before ROSC; type: in vivo
Method: Argon treatment led to higher systemic pulse pressures (arterial pressure during compression minus pressure during decompression), a lower number of defibrillation attempts and epinephrine requirements to achieve ROSC, a higher ROSC rate, lower lactic acidosis upon ROSC and lower cardiac injury markers (CK-MB and Troponin I) 6 hours after ROSC.
In one example, in-vivo experiments included a systematic study of the effect of Argon administered during CPR in a pig model of cardiac arrest on cardiac and neurological function, histological and other molecular effects after ROSC including 24- or 48 hr survival studies. […] Other examples include cell culture (in vitro) and isolated heart (ex vivo) experiments. The in vitro experiments include a systematic study of the effect of Argon administered on reoxygenation after prolonged hypoxia on markers of cellular injury and cell death in cardiomycytes and neuronal cell cultures. The ex vivo experiments include a systematic study of the effect of Argon administered on reperfusion after global coronary ischemia on coronary and myocardial function and infarct size in rat isolated hearts. […]

human cardiomyocytes = experiment: Hypoxia/reoxygenation in isolated cells, LDH injury marker; type: cell-based; details: Argon for 10 min or 30 min upon reoxygenation after hypoxia, vs control HR with nitrogen
Method: (§1) These experiments show no evidence that Argon, given for 10 min or 30 min upon reoxygenation (R) after hypoxia (H), directly improves the cellular injury marker lactate dehydrogenase (LDH) compared to control HR with nitrogen.
(§2) In one example, in-vivo experiments included a systematic study of the effect of Argon administered during CPR in a pig model of cardiac arrest on cardiac and neurological function, histological and other molecular effects after ROSC including 24- or 48 hr survival studies. […] Other examples include cell culture (in vitro) and isolated heart (ex vivo) experiments. The in vitro experiments include a systematic study of the effect of Argon administered on reoxygenation after prolonged hypoxia on markers of cellular injury and cell death in cardiomycytes and neuronal cell cultures. The ex vivo experiments include a systematic study of the effect of Argon administered on reperfusion after global coronary ischemia on coronary and myocardial function and infarct size in rat isolated hearts.

[2] = tested on: coronary artery endothelial cells; experiment: as above; type: cell-based, human; details: Argon for 10 min or 30 min upon reoxygenation after hypoxia, vs control HR with nitrogen
Method: as §1

rat isolated hearts = experiment: Rat isolated hearts, 30 min global no-flow ischemia and 120 min reperfusion; details: for defibrillation by lidocaine administration required to convert back to sinus rhythm: vs control hearts, P<0.05
Source text: as §2

rat isolated lungs = experiment: Rat isolated lungs, pulmonary vascular resistance under different gas mixtures
Method: Rat isolated lungs ventilated with either 65% N2 or 65% Argon plus 30% O2 and 5% CO2 and perfused at a rate of 40 mL/kg body weight with physiological salt solution plus 4% albumin via cannulas placed into the pulmonary artery (PA) and left atrium. PA pressure is recorded throughout the experiment and analyzed to determine the effect of different gas mixtures on the pulmonary vascular resistance. Argon led to a reversible 28% drop in pulmonary perfusion pressure at constant flow compared to ventilation with Nitrogen before and after. P<0.05*vs Nitrogen, † vs Argon.

[3] = gas mixture given during CPR, pigs
[4] = 65% Argon for 10 or 120 min of reperfusion vs 65% Nitrogen

[Ar] [Argon, argon]
outcome parameters ([1]; CPR with 70% Argon, compared to control animals without Argon during CPR, in words): much improved
systemic pulse pressures (arterial pressure during compression minus pressure during decompression) ([1]; during CPR, vs Nitrogen/O2, in words): higher
Arterial pH upon ROSC [1, 3]: 7.27 ± 0.05
CK-MB 6 hrs after ROSC [1, 3]: 15.2 ± 4.3 ng/mL
Epinephrine dose to achieve ROSC [1, 3]: 0.7 ± 0.2 mg
Lactate upon ROSC [1, 3]: 6.8 ± 0.7 mEq
Number of defibrillations to achieve ROSC [1, 3]: 2.4 ± 1.0 n
Pulse pressure at 3 min CPR [1, 3]: 62.3 ± 3.7 mmHg
ROSC [1, 3]: 100%
Troponin I 6 hrs after ROSC [1, 3]: 6.8 ± 4.7 ng/mL
ROSC rate ([1]; vs Nitrogen/O2, in words): higher
cardiac injury markers (CK-MB and Troponin I) 6 hours after ROSC ([1]; vs Nitrogen/O2, in words): lower
epinephrine requirements to achieve ROSC ([1]; vs Nitrogen/O2, in words): lower
lactic acidosis upon ROSC ([1]; vs Nitrogen/O2, in words): lower
number of defibrillation attempts to achieve ROSC ([1]; vs Nitrogen/O2, in words): lower
number of defibrillation attempts to achieve ROSC ([1]; vs Nitrogen/O2, in words, listed as 70% Argon): less
improvement of cellular injury marker lactate dehydrogenase (LDH) (human cardiomyocytes): no evidence
improvement of cellular injury marker lactate dehydrogenase (LDH) [2]: no evidence
coronary or myocardial function (diastolic and developed left ventricular pressure, coronary flow) (rat isolated hearts; [4]): no evidence of improved
infarct size (rat isolated hearts; [4]): no evidence of improved
defibrillation by lidocaine administration required to convert back to sinus rhythm (rat isolated hearts): significantly less
defibrillation by lidocaine administration required to convert back to sinus rhythm (rat isolated hearts; listed as 70% Argon): less
drop in pulmonary perfusion pressure at constant flow (rat isolated lungs; 65% Argon plus 30% O2 and 5% CO2, reversible, vs ventilation with Nitrogen before and after): 28%
pulmonary artery pressure at constant flow (rat isolated lungs; isolated lungs, in words): lower
